Measured values as given in ChEMBL document CHEMBL1201862, “PubChem BioAssay data set” (2004).
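Test compounds were applied to cells in 96-well plates for 48 hours at 5 doses. GI50 is the concentration that inhibits growth by half.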 Calls of active or inactive are those of the source. Rule as the data show it: active = GI50 up to about 1.1 µM and inactive = higher.

What was measured:
Test in all cases: NCI tumour cell line growth inhibition, 48 h
HOP-92 = tested on: HOP-92
DU-145 = tested on: DU-145
SR = tested on: SR
NCI-H226 = tested on: NCI-H226
HL-60 = tested on: HL-60
786-0 = tested on: 786-0
CCRF-CEM = tested on: CCRF-CEM
A498 = tested on: A498
K562 = tested on: K562
HOP-62 = tested on: HOP-62
OVCAR-3 = tested on: OVCAR-3
MDA-MB-231 = tested on: MDA-MB-231
KM12 = tested on: KM12
OVCAR-5 = tested on: OVCAR-5
M14 = tested on: M14
PC-3 = tested on: PC-3
SK-OV-3 = tested on: SK-OV-3
TK-10 = tested on: TK-10
UACC-62 = tested on: UACC-62
SF-539 = tested on: SF-539
SF-295 = tested on: SF-295
BT-549 = tested on: BT-549
COLO 205 = tested on: COLO 205
OVCAR-8 = tested on: OVCAR-8
CAKI-1 = tested on: CAKI-1
SNB-75 = tested on: SNB-75
U-251 = tested on: U-251
SW-620 = tested on: SW-620
MDA-N = tested on: MDA-N
SK-MEL-28 = tested on: SK-MEL-28
MDA-MB-435 = tested on: MDA-MB-435
RPMI-8226 = tested on: RPMI-8226
SNB-19 = tested on: SNB-19
LOX IMVI = tested on: LOX IMVI
IGROV-1 = tested on: IGROV-1
NCI-H460 = tested on: NCI-H460
MCF7 = tested on: MCF7
ACHN = tested on: ACHN
SN12C = tested on: SN12C
A549 = tested on: A549
NCI-H23 = tested on: NCI-H23
SK-MEL-2 = tested on: SK-MEL-2
HCT-116 = tested on: HCT-116
EKVX = tested on: EKVX
OVCAR-4 = tested on: OVCAR-4
Malme-3M = tested on: Malme-3M
SK-MEL-5 = tested on: SK-MEL-5
HCT-15 = tested on: HCT-15
UACC-257 = tested on: UACC-257
SF-268 = tested on: SF-268
RXF 393 = tested on: RXF 393
NCI-H522 = tested on: NCI-H522
NCI/ADR-RES = tested on: NCI/ADR-RES
HCC 2998 = tested on: HCC 2998
T47D = tested on: T47D
HT-29 = tested on: HT-29
MOLT-4 = tested on: MOLT-4
Hs-578T = tested on: Hs-578T

SMILES: COc1cc2oc(-c3ccc(O)cc3)c(OC3OC(C)C(O)C(O)C3O)c(=O)c2c(O)c1OC (stereo not drawn)
- GI50 (HOP-92): > 100 µM (inactive)
- GI50 (DU-145): 99.8 µM (inactive)
- GI50 (SR): 27 µM (inactive)
- GI50 (NCI-H226): > 100 µM (inactive)
- GI50 (HL-60): 32.9 µM (inactive)
- GI50 (786-0): 51.2 µM (inactive)
- GI50 (CCRF-CEM): 35.6 µM (inactive)
- GI50 (A498): > 100 µM (inactive)
- GI50 (K562): 54.3 µM (inactive)
- GI50 (HOP-62): > 100 µM (inactive)
- GI50 (OVCAR-3): > 100 µM (inactive)
- GI50 (MDA-MB-231): > 100 µM (inactive)
- GI50 (KM12): > 100 µM (inactive)
- GI50 (OVCAR-5): > 100 µM (inactive)
- GI50 (M14): > 100 µM (inactive)
- GI50 (PC-3): > 100 µM (inactive)
- GI50 (SK-OV-3): > 100 µM (inactive)
- GI50 (TK-10): > 100 µM (inactive)
- GI50 (UACC-62): 75.5 µM (inactive)
- GI50 (SF-539): > 100 µM (inactive)
- GI50 (SF-295): > 100 µM (inactive)
- GI50 (BT-549): 62.1 µM (inactive)
- GI50 (COLO 205): > 100 µM (inactive)
- GI50 (OVCAR-8): 91 µM (inactive)
- GI50 (CAKI-1): > 100 µM (inactive)
- GI50 (SNB-75): > 100 µM (inactive)
- GI50 (U-251): 89.5 µM (inactive)
- GI50 (SW-620): 92.7 µM (inactive)
- GI50 (MDA-N): > 100 µM (inactive)
- GI50 (SK-MEL-28): > 100 µM (inactive)
- GI50 (MDA-MB-435): > 100 µM (inactive)
- GI50 (RPMI-8226): 16.7 µM (inactive)
- GI50 (SNB-19): > 100 µM (inactive)
- GI50 (LOX IMVI): 57.7 µM (inactive)
- GI50 (IGROV-1): > 100 µM (inactive)
- GI50 (NCI-H460): 45.8 µM (inactive)
- GI50 (MCF7): 55.7 µM (inactive)
- GI50 (ACHN): 90.8 µM (inactive)
- GI50 (SN12C): > 100 µM (inactive)
- GI50 (A549): 79.6 µM (inactive)
- GI50 (NCI-H23): 36.5 µM (inactive)
- GI50 (SK-MEL-2): > 100 µM (inactive)
- GI50 (HCT-116): 80.4 µM (inactive)
- GI50 (EKVX): > 100 µM (inactive)
- GI50 (OVCAR-4): 57.8 µM (inactive)
- GI50 (Malme-3M): 96.2 µM (inactive)
- GI50 (SK-MEL-5): 45.1 µM (inactive)
- GI50 (HCT-15): > 100 µM
- GI50 (UACC-257): > 100 µM (inactive)
- GI50 (SF-268): > 100 µM (inactive)
- GI50 (RXF 393): > 100 µM (inactive)
- GI50 (NCI-H522): 37 µM (inactive)
- GI50 (NCI/ADR-RES): 75.5 µM (inactive)
- GI50 (HCC 2998): > 100 µM (inactive)
- GI50 (T47D): > 100 µM (inactive)
- GI50 (HT-29): > 100 µM (inactive)
- GI50 (MOLT-4): 33 µM (inactive)
- GI50 (Hs-578T): > 100 µM (inactive)
